Laboratory results: paper PMC4730117, “In vitro Biochemical Characterization of All Barley Endosperm Starch Synthases” (Frontiers in Plant Science, 2016)

Columns and labels:
Test in all cases: glycan microarray on nitrocellulose, anti-His detection
CBM53-3 = target: T1, CBM53-3 (Hordeum vulgare, UniProt G1FUP7); conditions: protein 30 μg/mL in PBS with 5% milk powder; printed oligosaccharide; strong binding
T1 construct: third CBM53 domain of HvSSIIIa only, C-terminal His-tag, vector pET151, E. coli; borders only in supplement
T1 sequence (G1FUP7 entry or part of it): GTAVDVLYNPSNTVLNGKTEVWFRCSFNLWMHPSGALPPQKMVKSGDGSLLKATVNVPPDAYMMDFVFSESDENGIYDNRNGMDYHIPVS

HvGBSSI = target: T2, HvGBSSI (Hordeum vulgare, UniProt P09842); conditions: protein 30 μg/mL in PBS with 5% milk powder; printed oligosaccharide; weaker binding
T2 construct: gene WAXY; without predicted chloroplast transit peptide, N-terminal His-tag, codon-optimised, E. coli
T2 sequence (P09842 71-603): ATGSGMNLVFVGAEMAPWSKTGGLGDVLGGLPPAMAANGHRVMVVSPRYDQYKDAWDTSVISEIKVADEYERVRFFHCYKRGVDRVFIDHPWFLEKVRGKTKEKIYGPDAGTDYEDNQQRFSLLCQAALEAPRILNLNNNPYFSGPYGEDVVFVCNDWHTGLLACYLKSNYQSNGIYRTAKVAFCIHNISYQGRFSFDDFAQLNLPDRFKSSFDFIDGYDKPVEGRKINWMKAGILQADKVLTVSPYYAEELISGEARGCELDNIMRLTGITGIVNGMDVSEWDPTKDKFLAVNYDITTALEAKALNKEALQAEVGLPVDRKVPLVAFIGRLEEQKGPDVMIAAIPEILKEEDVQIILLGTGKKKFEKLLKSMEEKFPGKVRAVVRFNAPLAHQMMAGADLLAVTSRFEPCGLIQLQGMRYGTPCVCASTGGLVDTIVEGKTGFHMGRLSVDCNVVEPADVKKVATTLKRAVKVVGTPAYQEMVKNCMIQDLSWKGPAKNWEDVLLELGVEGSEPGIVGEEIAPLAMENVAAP

HvSSIIa = target: T3, HvSSIIa (Hordeum vulgare, UniProt Q8H1Y8); conditions: protein 30 μg/mL in PBS with 5% milk powder; printed oligosaccharide; strong binding
T3 construct: without predicted chloroplast transit peptide, N-terminal His-tag, codon-optimised, E. coli
T3 sequence (Q8H1Y8 61-802): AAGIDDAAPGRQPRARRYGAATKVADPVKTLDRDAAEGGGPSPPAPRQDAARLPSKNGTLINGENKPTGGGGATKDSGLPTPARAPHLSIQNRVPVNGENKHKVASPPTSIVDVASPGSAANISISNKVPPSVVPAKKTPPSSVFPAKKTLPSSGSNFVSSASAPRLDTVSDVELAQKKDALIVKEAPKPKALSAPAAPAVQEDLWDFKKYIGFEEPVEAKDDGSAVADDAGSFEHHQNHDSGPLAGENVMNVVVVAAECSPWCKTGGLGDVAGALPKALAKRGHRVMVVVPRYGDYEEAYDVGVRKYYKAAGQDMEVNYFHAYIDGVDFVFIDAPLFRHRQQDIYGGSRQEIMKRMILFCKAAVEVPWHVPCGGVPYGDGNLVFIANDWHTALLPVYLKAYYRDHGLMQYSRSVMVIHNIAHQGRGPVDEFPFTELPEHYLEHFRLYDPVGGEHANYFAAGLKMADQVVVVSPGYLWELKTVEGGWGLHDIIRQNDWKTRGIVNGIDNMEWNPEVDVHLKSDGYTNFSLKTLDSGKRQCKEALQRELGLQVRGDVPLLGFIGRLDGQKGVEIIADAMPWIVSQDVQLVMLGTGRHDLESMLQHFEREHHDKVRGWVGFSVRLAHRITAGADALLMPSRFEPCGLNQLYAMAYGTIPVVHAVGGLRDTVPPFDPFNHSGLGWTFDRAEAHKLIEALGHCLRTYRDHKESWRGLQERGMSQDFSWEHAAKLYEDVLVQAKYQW

HvSSIV = target: T4, HvSSIV (Hordeum vulgare, UniProt F2CUZ5); conditions: protein 30 μg/mL in PBS with 5% milk powder; printed oligosaccharide; strong binding
T4 construct: without predicted chloroplast transit peptide, C-terminal His-tag, codon-optimised, E. coli
T4 sequence (F2CUZ5 49-914): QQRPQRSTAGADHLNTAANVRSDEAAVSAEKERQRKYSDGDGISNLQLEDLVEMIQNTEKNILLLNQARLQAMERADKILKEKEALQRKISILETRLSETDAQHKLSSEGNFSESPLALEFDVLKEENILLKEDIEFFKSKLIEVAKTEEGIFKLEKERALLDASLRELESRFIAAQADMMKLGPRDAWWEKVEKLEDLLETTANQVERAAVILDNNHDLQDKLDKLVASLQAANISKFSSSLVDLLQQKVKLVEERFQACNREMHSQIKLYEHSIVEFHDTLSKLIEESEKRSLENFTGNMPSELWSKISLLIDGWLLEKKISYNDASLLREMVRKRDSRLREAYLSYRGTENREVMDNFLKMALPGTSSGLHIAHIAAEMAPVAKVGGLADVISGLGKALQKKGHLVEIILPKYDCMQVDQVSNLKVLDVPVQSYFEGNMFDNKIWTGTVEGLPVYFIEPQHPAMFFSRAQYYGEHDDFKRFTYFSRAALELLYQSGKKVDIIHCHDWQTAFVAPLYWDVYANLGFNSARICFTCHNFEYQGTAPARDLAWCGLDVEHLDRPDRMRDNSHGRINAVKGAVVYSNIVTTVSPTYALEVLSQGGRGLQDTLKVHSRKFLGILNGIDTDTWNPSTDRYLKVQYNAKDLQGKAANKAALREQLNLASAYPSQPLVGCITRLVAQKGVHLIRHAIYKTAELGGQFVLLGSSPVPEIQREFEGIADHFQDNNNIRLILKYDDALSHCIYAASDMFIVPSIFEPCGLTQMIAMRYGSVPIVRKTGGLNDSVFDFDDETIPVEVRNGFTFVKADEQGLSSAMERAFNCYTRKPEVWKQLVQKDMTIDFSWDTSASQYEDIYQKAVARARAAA

Question: Which results are given for O=P(O)(O)O[C@H]1[C@H](O[C@H]2O[C@H](CO)[C@@H](O)[C@H](O)[C@H]2O)[C@@H](CO)OC(O)[C@@H]1O (stereo partly shown) [3-phosphomaltose]?
Answer: glycan microarray on nitrocellulose, anti-His detection (CBM53-3): SSIIa, CBM53-3, and SSIV all showed strong binding to 3-phosphomaltose; glycan microarray on nitrocellulose, anti-His detection (HvGBSSI): while GBSSI showed weaker binding and binding was non-detectable for SSI; glycan microarray on nitrocellulose, anti-His detection (HvSSIIa): SSIIa, CBM53-3, and SSIV all showed strong binding to 3-phosphomaltose; glycan microarray on nitrocellulose, anti-His detection (HvSSIV): SSIIa, CBM53-3, and SSIV all showed strong binding to 3-phosphomaltose
